Assay results: US7157107B2, “Method for producing eggs with low cholesterol level” (priority 2004, dated 2007)
Like-named read-outs stand apart in the source and are kept apart here.

How the values were obtained:
hens = conditions: cited from earlier work
Hy-line laying hens = assay: Monacolin K residue remained in eggs (HPLC); assay type: in vivo, hen; conditions: hens fed basal diet containing 0.056% monacolin K (highest red mold rice content) for 42 days, FIG. 3
Procedure: The method for determining whether there is any monacolin K residue remained comprised the following steps. 20 mL acetonitrile-water (9:1, v/v) is added into 10 grams of egg samples (including yolk samples and albumen samples which are separated from eggs laid by hens fed with red mold rice of the highest content for 42 days), vibrated for 60 min through ultrasonic vibration, stirred and mixed for 15 min. Then, after the solid is separated off through a Whatman No. 1 filter paper, equal volume of acetonitrile is added into a 4 mL egg sample, filtered via a filter membrane of 0.45 μm pore size, and analyzed thgrough HPLC. The operating conditions for performing HPLC analysis were described as above.

SMILES: CC[C@H](C)C(=O)O[C@H]1C[C@@H](C)C=C2C=C[C@H](C)[C@H](CC[C@@H]3C[C@@H](O)CC(=O)O3)[C@H]21 [lovastatin]
- Lowering of egg cholesterol concentration (hens; 0.0005% lovastatin, hens of 30 weeks old, feed for 12 weeks (Mori et al.)): 7.5%
- Lowering of egg cholesterol concentration (hens; 0.0015% lovastatin, hens of 30 weeks old, feed for 12 weeks (Mori et al.)): 12.7%
- Decrease in egg cholesterol concentration (hens; 0.0035% lovastatin, hens of 69 weeks old, feed for 5 weeks (Luhman et al.)): no significant decrease
- Lowering of egg cholesterol concentration (hens; 0.03% lovastatin, hens of 18 weeks old, feed for 5 weeks (Elkin and Yan)): 4%
- Lowering of egg cholesterol concentration (hens; 0.06% lovastatin, hens of 18 weeks old, feed for 5 weeks (Elkin and Yan)): 7%
- Decrease of egg cholesterol (hens; 0.2407% lovastatin in feed for 9 days (Elkin and Rogler)): 13%
- Monacolin K residue in eggs (yolk and egg white) (Hy-line laying hens): no monacolin K residue
